Consider 27 molecules from patent US10758534B2 (Vertex Pharmaceuticals Incorporated, priority 2014, dated 2020).

This assay deals with T1, F508del (Homo sapiens, UniProt P13569, DEL508-508).
T1 construct: expressed in transfected cells
The assay is described as follows: Protocol 1: membrane potential optical assay (FLIPR III, voltage sensing dye), identification of potentiator compounds. The following applies: Table 3, compounds of Table 1. It counts as cell-based. In outline:
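NIH 3T3 fibroblasts stably expressing F508del were cultured at 27° C for 24 hrs for temperature correction, then treated with compounds or DMSO and loaded with a voltage-sensing redistribution dye. Forskolin added with a Cl⁻ gradient activated the channel; membrane-potential fluorescence on FLIPR III reported increased gating.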

T1 sequence (P13569 with tags, fused parts or gaps DEL508-508): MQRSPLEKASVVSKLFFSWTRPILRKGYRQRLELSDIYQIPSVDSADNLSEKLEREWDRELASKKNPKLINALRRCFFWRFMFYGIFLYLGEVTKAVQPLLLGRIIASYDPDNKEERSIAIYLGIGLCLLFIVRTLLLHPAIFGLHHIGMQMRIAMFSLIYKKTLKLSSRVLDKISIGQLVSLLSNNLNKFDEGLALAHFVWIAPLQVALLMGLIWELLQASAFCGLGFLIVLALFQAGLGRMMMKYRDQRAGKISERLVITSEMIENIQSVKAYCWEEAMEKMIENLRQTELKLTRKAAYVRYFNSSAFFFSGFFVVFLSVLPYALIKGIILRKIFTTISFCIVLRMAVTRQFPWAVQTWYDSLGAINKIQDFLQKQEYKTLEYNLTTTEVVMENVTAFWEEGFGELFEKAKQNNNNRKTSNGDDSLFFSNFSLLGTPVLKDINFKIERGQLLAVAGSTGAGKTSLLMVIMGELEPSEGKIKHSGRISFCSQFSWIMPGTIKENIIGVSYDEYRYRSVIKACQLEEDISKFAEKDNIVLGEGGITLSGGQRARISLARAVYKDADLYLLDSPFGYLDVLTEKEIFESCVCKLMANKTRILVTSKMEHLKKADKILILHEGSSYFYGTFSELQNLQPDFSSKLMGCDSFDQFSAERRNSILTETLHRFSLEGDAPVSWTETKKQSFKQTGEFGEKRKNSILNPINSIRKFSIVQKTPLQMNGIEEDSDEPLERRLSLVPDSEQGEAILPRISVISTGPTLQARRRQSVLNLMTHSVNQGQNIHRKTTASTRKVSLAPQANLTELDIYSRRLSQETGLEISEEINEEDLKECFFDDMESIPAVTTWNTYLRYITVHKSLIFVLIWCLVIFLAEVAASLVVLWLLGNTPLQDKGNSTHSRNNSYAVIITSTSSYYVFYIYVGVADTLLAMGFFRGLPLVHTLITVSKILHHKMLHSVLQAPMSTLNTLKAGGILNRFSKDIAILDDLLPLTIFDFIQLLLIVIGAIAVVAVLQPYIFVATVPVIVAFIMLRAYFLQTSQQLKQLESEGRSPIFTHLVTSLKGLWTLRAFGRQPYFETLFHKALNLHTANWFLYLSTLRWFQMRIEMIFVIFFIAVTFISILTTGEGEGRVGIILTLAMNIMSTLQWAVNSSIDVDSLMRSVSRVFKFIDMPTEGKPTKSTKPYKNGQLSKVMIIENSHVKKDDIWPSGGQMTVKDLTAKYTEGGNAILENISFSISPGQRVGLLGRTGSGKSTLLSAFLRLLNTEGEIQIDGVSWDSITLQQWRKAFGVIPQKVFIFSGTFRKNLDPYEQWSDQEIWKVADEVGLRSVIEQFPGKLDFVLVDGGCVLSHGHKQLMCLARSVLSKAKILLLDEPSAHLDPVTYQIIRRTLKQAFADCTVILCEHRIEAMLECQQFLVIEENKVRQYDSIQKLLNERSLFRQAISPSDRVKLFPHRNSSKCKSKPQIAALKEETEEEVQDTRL

As for `CC1CN(c2ncccc2C(=O)NS(=O)(=O)c2cccc(NCc3ccccc3)n2)C(C)(C)C1` (stereo not drawn) [Compound 1938, N—[[6-(benzylamino)-2-pyridyl]sulfonyl]-2-(2,2,4-trimethylpyrrolidin-1-yl)pyridine-3-carboxamide], the EC30 entry is given as “+++ (“+++” means <3 uM)”. The value for `CC1CN(c2ncccc2C(=O)NS(=O)(=O)c2cccc(OC3(C)CCCC3)n2)C(C)(C)C1` (stereo not drawn) [Compound 1936, N—[[6-(1-methylcyclopentoxy)-2-pyridyl]sulfonyl]-2-(2,2,4-trimethylpyrrolidin-1-yl)pyridine-3-carboxamide] was “+++ (“+++” means <3 uM)”. Then `CC(C)COc1cc(F)cc(-c2ccc(C(=O)NS(=O)(=O)c3cccc(N)n3)c(OC(C)C3CC3)n2)c1` (stereo not drawn) [Compound 1165, N-[(6-amino-2-pyridyl)sulfonyl]-2-(1-cyclopropylethoxy)-6-(3-fluoro-5-isobutoxy-phenyl)pyridine-3-carboxamide], with “++ (“++” means between 3 uM and 10 uM)”; and `CC(C)Oc1ccc(-c2ccc(C(=O)NS(=O)(=O)c3cccc(N)n3)c(N3CCC[C@@H](c4ccccc4)C3)n2)cn1` [Compound 864, N-[(6-amino-2-pyridyl)sulfonyl]-6-(6-isopropoxy-3-pyridyl)-2-[(3S)-3-phenyl-1-piperidyl]pyridine-3-carboxamide], with “+++ (“+++” means <3 uM)”. The value for `C[C@@H]1CN(c2nc(-c3cc(F)cc(OCC(C)(C)O)c3)ccc2C(=O)NS(=O)(=O)c2ccccc2)C(C)(C)C1` [Compound 1581, N-(benzenesulfonyl)-6-[3-fluoro-5-(2-hydroxy-2-methyl-propoxy)phenyl]-2-[(4S)-2,2,4-trimethylpyrrolidin-1-yl]pyridine-3-carboxamide] was “+++ (“+++” means <3 uM)”. As for `CC1CN(c2nc(-c3ccc(OC(C)C)nc3)ccc2C(=O)NS(=O)(=O)c2cccc(N)n2)C(C)(C)C1` (stereo not drawn) [Compound 1247, N-[(6-amino-2-pyridyl)sulfonyl]-6-(6-isopropoxy-3-pyridyl)-2-(2,2,4-trimethylpyrrolidin-1-yl)pyridine-3-carboxamide], the EC30 result is “+++ (“+++” means <3 uM)”. Take `CC(C)Oc1ccc(-c2ccc(C(=O)NS(=O)(=O)c3cccc(N)n3)c(N3CCCC(C4CC4)C3)n2)cn1` (stereo not drawn) [Compound 1132, N-[(6-amino-2-pyridyl)sulfonyl]-2-(3-cyclopropyl-1-piperidyl)-6-(6-isopropoxy-3-pyridyl)pyridine-3-carboxamide]: the EC30 result is “+++ (“+++” means <3 uM)”. The value for `CCOc1cc(C)cc(-c2ccc(C(=O)NS(=O)(=O)c3ccc[nH]c3=O)c(N3C[C@@H](C)CC3(C)C)n2)n1` [Compound 1745, 6-(6-ethoxy-4-methyl-2-pyridyl)-N-[(2-oxo-1H-pyridin-3-yl)sulfonyl]-2-[(4S)-2,2,4-trimethylpyrrolidin-1-yl]pyridine-3-carboxamide] was “+++ (“+++” means <3 uM)”. Regarding `CC1(C)CN(c2ncc(C(F)(F)F)cc2C(=O)NS(=O)(=O)c2cccc(N)n2)C(C)(C)C1` [Compound 1638, N-[(6-amino-2-pyridyl)sulfonyl]-2-(2,2,4,4-tetramethylpyrrolidin-1-yl)-5-(trifluoromethyl)pyridine-3-carboxamide], the EC30 result is “+++ (“+++” means <3 uM)”. Then `Cc1ccccc1Nc1cccc(S(=O)(=O)NC(=O)c2cccnc2N2CC(C)CC2(C)C)n1` (stereo not drawn) [Compound 1898, N—[[6-(2-methylanilino)-2-pyridyl]sulfonyl]-2-(2,2,4-trimethylpyrrolidin-1-yl)pyridine-3-carboxamide], with “++ (“++” means between 3 uM and 10 uM)”; and `CC(C)COc1cc(F)cc(-c2nc(N3C[C@@H](C)CC3(C)C)ccc2C(=O)NS(=O)(=O)c2cccc(N)n2)c1` [Compound 1409, N-[(6-amino-2-pyridyl)sulfonyl]-2-(3-fluoro-5-isobutoxy-phenyl)-6-[(4S)-2,2,4-trimethylpyrrolidin-1-yl]pyridine-3-carboxamide], with “+++ (“+++” means <3 uM)”; and `C[C@@H]1CN(c2nc(-c3cccc(O)c3)ccc2C(=O)NS(=O)(=O)c2cccnc2N)C(C)(C)C1` [Compound 1820, N-[(2-amino-3-pyridyl)sulfonyl]-6-(3-hydroxyphenyl)-2-[(4S)-2,2,4-trimethylpyrrolidin-1-yl]pyridine-3-carboxamide], with “++ (“++” means between 3 uM and 10 uM)”. With `CC(C)COc1cc(F)cc(-c2ccc(C(=O)NS(=O)(=O)c3cccc(N)n3)c(OCCCc3ccccc3)n2)c1` [Compound 1694, N-[(6-amino-2-pyridyl)sulfonyl]-6-(3-fluoro-5-isobutoxy-phenyl)-2-(3-phenylpropoxy)pyridine-3-carboxamide], the EC30 result is listed as “+++ (“+++” means <3 uM)”. As for `CCOc1cccc2c1CN(Cc1cc(F)cc(OC)c1)C2(C)C(=O)NS(=O)(=O)c1cccc(F)n1` (stereo not drawn) [Compound 1428, 4-ethoxy-2-[(3-fluoro-5-methoxy-phenyl)methyl]-N-[(6-fluoro-2-pyridyl)sulfonyl]-1-methyl-isoindoline-1-carboxamide], the EC30 result was “+++ (“+++” means <3 uM)”. Regarding `CC(C)COc1cc(-c2ccc(C(=O)NS(=O)(=O)c3ccc[nH]c3=O)c(N3[C@H](C)CC[C@@H]3C)n2)ccc1Cl` [Compound 902, 6-(4-chloro-3-isobutoxy-phenyl)-2-[(2S,5R)-2,5-dimethylpyrrolidin-1-yl]-N-[(2-oxo-1H-pyridin-3-yl)sulfonyl]pyridine-3-carboxamide], the EC30 result is listed as “+++ (“+++” means <3 uM)”.

For `Cc1cc(C)c(Oc2cc(-c3cc(F)cc(OCC(C)C)c3)ccc2C(=O)NS(=O)(=O)c2cccc(N)n2)c(C)c1` [Compound 1549, N-[(6-amino-2-pyridyl)sulfonyl]-4-(3-fluoro-5-isobutoxy-phenyl)-2-(2,4,6-trimethylphenoxy)benzamide], the EC30 entry is recorded as “+++ (“+++” means <3 uM)”.

Regarding `C[C@@H]1CN(c2nc(C3=CCN(C(=O)OC(C)(C)C)CC3)ccc2C(=O)NS(=O)(=O)c2cccc(N)n2)C(C)(C)C1` [Compound 1624, tert-butyl 4-[5-[(6-amino-2-pyridyl)sulfonylcarbamoyl]-6-[(4S)-2,2,4-trimethylpyrrolidin-1-yl]-2-pyridyl]-3,6-dihydro-2H-pyridine-1-carboxylate], the EC30 result was “+++ (“+++” means <3 uM)”. As for `Cc1cc(C)c(Oc2nc(-n3cc(C)cn3)ccc2C(=O)NS(=O)(=O)c2cccc(N)n2)c(C)c1` [Compound 1220, N-[(6-amino-2-pyridyl)sulfonyl]-6-(4-methylpyrazol-1-yl)-2-(2,4,6-trimethylphenoxy)pyridine-3-carboxamide], the EC30 result is “+++ (“+++” means <3 uM)”.

As to `CC(C)COc1cc(F)cc(-c2ccc(C(=O)NS(=O)(=O)c3cccc(N)n3)c(OC(C)(C)Cc3ccccc3)n2)c1` [Compound 1365, N-[(6-amino-2-pyridyl)sulfonyl]-2-(1,1-dimethyl-2-phenyl-ethoxy)-6-(3-fluoro-5-isobutoxy-phenyl)pyridine-3-carboxamide], the EC30 entry is recorded as “+++ (“+++” means <3 uM)”.

Regarding `Cc1cc(C)c(Oc2nc(N3CCOCC3)ccc2C(=O)NS(=O)(=O)c2cccc(N)n2)c(C)c1` [Compound 966, N-[(6-amino-2-pyridyl)sulfonyl]-6-morpholino-2-(2,4,6-trimethylphenoxy)pyridine-3-carboxamide], the EC30 result is “+ (“+” means greater than 10 uM)”. In the case of `COc1cc(C)cc(S(=O)(=O)NC(=O)c2ccc(-c3cc(F)cc(OCC(C)C)c3)nc2N2C[C@@H](C)CC2(C)C)n1` [Compound 1482, 6-(3-fluoro-5-isobutoxy-phenyl)-N-[(6-methoxy-4-methyl-2-pyridyl)sulfonyl]-2-[(4S)-2,2,4-trimethylpyrrolidin-1-yl]pyridine-3-carboxamide], the EC30 entry is recorded as “+++ (“+++” means <3 uM)”. On to `CCOc1ccc(-c2ccc(C(=O)NS(=O)(=O)c3cccnc3N)c(N3C[C@@H](C)CC3(C)C)n2)cc1C` [Compound 1860, N-[(2-amino-3-pyridyl)sulfonyl]-6-(4-ethoxy-3-methyl-phenyl)-2-[(4S)-2,2,4-trimethylpyrrolidin-1-yl]pyridine-3-carboxamide], for which the EC30 result is “+++ (“+++” means <3 uM)”. Then `C[C@@H]1CN(c2nc(C3CCCCO3)ccc2C(=O)NS(=O)(=O)c2ccccc2)C(C)(C)C1` (stereo partly drawn) [Compound 1868, N-(benzenesulfonyl)-6-tetrahydropyran-2-yl-2-[(4S)-2,2,4-trimethylpyrrolidin-1-yl]pyridine-3-carboxamide], with “+++ (“+++” means <3 uM)”; and `CCOc1cccc2c1CN(Cc1ccc(C(C)C)cc1)C2(C)C(=O)NS(=O)(=O)c1cccc(F)n1` (stereo not drawn) [Compound 1655, 4-ethoxy-N-[(6-fluoro-2-pyridyl)sulfonyl]-2-[(4-isopropylphenyl)methyl]-1-methyl-isoindoline-1-carboxamide], with “+++ (“+++” means <3 uM)”; and `CC1CN(c2ncccc2C(=O)NS(=O)(=O)c2cccc(N3CCc4c([nH]c5ccccc45)C3)n2)C(C)(C)C1` (stereo not drawn) [Compound 1833, N—[[6-(1,3,4,9-tetrahydropyrido[3,4-b]indol-2-yl)-2-pyridyl]sulfonyl]-2-(2,2,4-trimethylpyrrolidin-1-yl)pyridine-3-carboxamide], with “+++ (“+++” means <3 uM)”. The value for `C[C@@H]1CN(c2nc(C3=CCCN(C(=O)OC(C)(C)C)C3)ccc2C(=O)NS(=O)(=O)c2cccc(N)n2)C(C)(C)C1` [Compound 1371, tert-butyl 5-[5-[(6-amino-2-pyridyl)sulfonylcarbamoyl]-6-[(4S)-2,2,4-trimethylpyrrolidin-1-yl]-2-pyridyl]-3,6-dihydro-2H-pyridine-1-carboxylate] was “+++ (“+++” means <3 uM)”. Then `COc1cccc(CN(C)c2cccc(S(=O)(=O)NC(=O)c3cccnc3N3CC(C)CC3(C)C)n2)c1` (stereo not drawn) [Compound 1940, N—[[6-[(3-methoxyphenyl)methyl-methyl-amino]-2-pyridyl]sulfonyl]-2-(2,2,4-trimethylpyrrolidin-1-yl)pyridine-3-carboxamide], with “+++ (“+++” means <3 uM)”.
